Assay results from the METLIN SMRT retention time set (Domingo-Almenara et al. 2019).

Assay: gradient 5% acetonitrile 3 min, to 50% in 2 min, to 85% in 15 min, held 3 min, 100 µL/min
Settings: column: Zorbax Extend-C18 2.1 x 50 mm; eluents: water / acetonitrile, 0.1% formic acid
Outline: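 Retention time was recorded from adduct peaks, which were picked computationally and each inspected manually. Pure standards ran in mixtures of ~100 molecules on HPLC coupled to a quadrupole time-of-flight mass spectrometer, in positive and negative ionization mode, through a Zorbax Extend-C18 column (2.1 × 50 mm, 1.8 μm) at 100 μL/min. Eluents were water and acetonitrile, each with 0.1% formic acid.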

RP-LC retention time | Compound
715 s | CC(NC(=O)c1ccc(-c2cncnc2)nc1)c1ccccc1 (centres undefined)
691 s | CCN1C(=O)CCc2cc(NC(=O)C3CCC3)ccc21
640 s | O=C(O)c1ccc(N2CCN(c3ccccn3)CC2)c(NS(=O)(=O)c2cc(F)ccc2F)c1
735 s | NS(=O)(=O)c1cccnc1Nc1ccc2c(c1)OCCO2
670 s | Cc1nc2cc(N3CCC(C(=O)NCc4cccs4)CC3)cnc2nc1C
762 s | Cc1nnc(N2CCCC(C(=O)NCCc3cccs3)C2)c2nn(-c3ccc(Cl)cc3)c(C)c12 (centres undefined)
1090 s | COc1ccc(OC)c(-c2csc(-c3nnn(-c4ccc(F)cc4)c3N)n2)c1
819 s | CCOCCCNC(=O)CN1C(=O)C2CCCCN2c2ccc(S(=O)(=O)N3CCCC3)cc21 (centres undefined)
804 s | COc1ccc(-c2ccnc3nc(-c4ccccc4OC)nn23)cc1OC
862 s | CCc1noc(NC(C)=O)c1-c1ccc(OC)c(S(=O)(=O)Nc2cccc(C(F)(F)F)c2)c1
985 s | CCOC(=O)CC(=O)CSc1ncnc2c1cnn2-c1ccc(F)cc1
608 s | CCc1cc(=O)n(CC(=O)Nc2cccc(C)c2C)c(N)n1
870 s | O=C(NC1CC1)c1ccc(OCC2CCN(C(=O)c3ccc(F)c(Cl)c3)CC2)cc1
1080 s | COc1ccc(Cn2cccc2-c2nc(-c3ccncc3)no2)cc1
891 s | O=C(C1CCC1)N1CC(c2nc(-c3ccc(F)cc3)no2)C2(CCOCC2)C1 (centres undefined)
941 s | CN(C)S(=O)(=O)c1ccc(-c2nnc(C(=O)NCCC3=CCCCC3)o2)cc1
565 s | O=C(Nc1ccc(Cl)cc1)N1CCc2[nH]cnc2C1c1ccncc1 (centres undefined)
720 s | COCC(=O)Nc1nc(-c2ccc3c(c2)NC(=O)C(C)O3)c(C)s1 (centres undefined)
591 s | CC(C)C[C@H](NC(=O)C1OC1C(=O)O)C(=O)NCCCCN=C(N)N (some centres undefined)
637 s | CC1(C)C(=O)NCCN1C(=O)c1cccc(Cl)c1
885 s | Cn1c(=O)c2cc(C(=O)Nc3ccccc3)cnc2n(-c2ccc(F)cc2)c1=O
737 s | CSc1nnc(-c2nn(C)c3c2CN(C(=O)c2cccc(Cl)c2)CC3)n1C
641 s | Nc1c(-c2nnc(SCC(=O)N3CCOCC3)n2CC2CCCO2)sc2ncccc12 (centres undefined)

RP-LC retention time | Compound
950 s | Cc1ccc(Nc2nc(C)cc(N3CCN(S(=O)(=O)c4cc(C(C)C)ccc4C)CC3)n2)cc1
916 s | Cc1ccc(C)c(S(=O)(=O)NCc2c(-c3ccccc3)nc3sc(C)nn23)c1
852 s | O=C(NCC1(c2ccccc2)CCOCC1)c1cccc(C(F)(F)F)c1
844 s | COc1ccc(N2C=C(C#N)S(=O)(=O)c3c(F)cccc32)cc1OC
904 s | COC(=O)CNC(c1ccccc1)c1cc(C)ccc1NS(=O)(=O)c1ccc(C)cc1 (centres undefined)
764 s | CC(C)NC(=O)c1nsc(C(=O)N2CCN(c3ncccn3)CC2)c1N
704 s | CCN1CCCn2cc(S(=O)(=O)Nc3cc(OC)cc(OC)c3)cc2C1=O
738 s | CN1C(=O)Cc2cc(C(=O)NCc3ccccc3Cl)ccc21
1060 s | CCc1nc(-c2csc(S(=O)(=O)N3CCC(C(=O)Nc4ccc(C)c(F)c4)CC3)c2)no1
607 s | Cc1cnn(CC(=O)N2CCC3(CCC3O)CC2)c1 (centres undefined)
1140 s | O=C(Nc1ccccc1)C1CCCN(S(=O)(=O)c2cc(-c3noc(C4CCC4)n3)cs2)C1 (centres undefined)
694 s | O=C(NCc1ccccc1)C1CCN(S(=O)(=O)c2cc(C(=O)N3CCOCC3)cs2)CC1
830 s | O=C(Nc1ccccc1NC(=O)c1ccccc1C(F)(F)F)c1ccsc1
1130 s | Cc1nc2cc(-c3noc(Cc4c(Cl)cccc4Cl)n3)ccc2o1
792 s | COc1ccc(-c2csc(NCCc3ccc(OC)c(OC)c3)n2)cc1
835 s | COc1ccc(-c2cn3c(CC(=O)N4CCN(c5cccc(Cl)c5)CC4)csc3n2)cc1OC
1210 s | CC(C)NC(=O)C1CCCN(c2nc3ncn(CC(=O)NC4CCCC4)c(=O)c3s2)C1 (centres undefined)
858 s | O=C(NCc1ccc(F)cc1F)c1cn2cc(Cl)ccc2n1
868 s | CC(C)CCNC(=O)C1CCCN(c2ccc(=O)n(-c3cccc(F)c3)n2)C1 (centres undefined)
861 s | CCOc1ccc(-c2[nH]ncc2CNS(=O)(=O)Cc2ccc(Cl)cc2)cc1
860 s | Cc1cccn2cc(C(=O)NCCC3=CCCCC3)nc12
876 s | CCCCc1ccc(NC(=O)N2CCC(c3cc(N)on3)CC2)cc1
1020 s | O=C1CC(c2noc(-c3cc(F)ccc3F)n2)CN1c1ccc(Cl)cc1 (centres undefined)

RP-LC retention time | Compound
573 s | O=C(NCCCN1CCCCC1)C1CN(S(=O)(=O)c2cccnc2)CC12CCCCC2 (centres undefined)
1080 s | Cc1cc(=O)n(CC(=O)Nc2ccc(Cl)cc2)c(-c2ccccc2)n1
1330 s | CCOC(=O)c1ccccc1NC(=O)Cn1c(-c2ccccc2)nc(C)cc1=O
801 s | CC(C)NC(=O)CCn1c(=O)c2ccccc2n2c(=O)n(Cc3ccccc3)nc12
717 s | Cc1nnc(-c2cccc(Cl)c2)nc1NC(C)C
736 s | CC1(C(=O)N2CC=C(c3ccccc3)CC2)CCCCC(=O)N1 (centres undefined)
586 s | Cc1cccc2nnc(N3CCCC(C(=O)NCCC(C)C)C3)n12 (centres undefined)
793 s | Cc1nnc(N2C(=O)C(O)=C(C(=O)c3ccco3)C2c2ccc([N+](=O)[O-])cc2)s1 (centres undefined)
877 s | CC(=O)c1cccc(NC(=O)Cn2cc(-c3ccccc3)c3ncn(C4CC4)c(=O)c32)c1
813 s | COC(=O)c1c(C)[nH]c(C(=O)N2CCCC(C(=O)NCc3cccc(Br)c3)C2)c1C (centres undefined)
617 s | Cc1ccc(CNC(=O)C2(C)Cn3nc(C(=O)NCCCN4CCCCCC4)cc3C(=O)N2C)cc1 (centres undefined)
865 s | COc1cccc(S(=O)(=O)N2CCC3(CC2)CC(OC)CCO3)c1 (centres undefined)
710 s | CCc1nnc2ccc(NC(=O)Nc3ccc(C)cc3)cn12
588 s | COc1ccc(-c2cn3c(CC(=O)NCc4ccc(N(C)C)cc4)csc3n2)cc1OC
554 s | O=C1CCCC(=O)N1CCS(=O)(=O)N1CCN(Cc2nc3ccccc3[nH]2)CC1
748 s | CCC(C)NC(=O)N1CCCN(C2=NS(=O)(=O)C(c3ccccc3)=C2C)CC1 (centres undefined)
1290 s | CCOc1ccc(-c2csc(Cc3nc(-c4ccccc4Cl)no3)n2)cc1
946 s | Cc1nc(-c2csc(S(=O)(=O)N3CCCC(C(=O)Nc4ccc(F)cc4)C3)c2)no1 (centres undefined)
589 s | O=C(c1ccc2ccnc(N3CCN(c4ccccc4)CC3)c2c1)N1CCC(N2CCCCC2)CC1
756 s | O=C(NCCc1ccsc1)C(=O)NCC(F)(F)F
646 s | Cn1cc2c(N3CCCC3)nc(C(=O)NCc3ccccc3C(F)(F)F)nc2n1
767 s | O=C(c1nc(-c2ccc(Cl)cc2)n2c1CCCCC2)N1CCN(c2ncccn2)CC1
1040 s | Cc1cc(-c2c(C)sc(C)c2S(=O)(=O)N2CC=C(c3ccccc3)CC2)n[nH]1

RP-LC retention time | Compound
624 s | CC(=O)N1CCCCCCNC(=O)[C@@H]2CCC[C@@H]21
1020 s | Cc1cccc(NC(=O)Nc2nc(C)c(C(=O)NCc3ccc4c(c3)OCO4)s2)c1
554 s | CN(C)c1ncncc1N1CCC(C(=O)NC2CC2)CC1
675 s | CC1=C(c2ccccc2)S(=O)(=O)N=C1N1CCCN(C(=O)C2CCOC2)CC1 (centres undefined)
912 s | COc1ccc(-n2c(=O)n(C)c(=O)c3cc(C(=O)Nc4cc(C)ccc4F)cnc32)cc1
1060 s | CCn1ccc2cc(S(=O)(=O)N3CCCC(C(=O)NCc4ccc(OC(C)C)cc4)C3)ccc21 (centres undefined)
695 s | Cc1ccc(CNC(=O)Cc2c(C(=O)O)c(C)cn2C)o1
785 s | O=C(NCCOc1ccc2c(c1)OCO2)c1ccccc1Cl
733 s | Cc1ccc(C)c(NC(=O)NCC(c2cccnc2)c2cn(C)c3ccccc23)c1 (centres undefined)
1110 s | CCc1nc(-c2csc(S(=O)(=O)N3CCCC(C(=O)N4CCc5ccccc54)C3)c2)no1 (centres undefined)
787 s | CC(C)CC(=O)Nc1nc(-c2ccc3c(c2)NC(=O)CO3)cs1
830 s | COc1ccccc1-c1nnc(-c2ccc(OC)c(S(=O)(=O)N3CCCC3)c2)o1
573 s | Cc1ccc(NC(=O)C(=O)NCCCN2CCOCC2)cc1F
692 s | Cc1nnc2ccc(S(=O)(=O)Nc3ccc(F)c(F)c3)cn12
1310 s | CCOC(=O)C1CCN(S(=O)(=O)c2cc(-c3nc(C(C)(C)C)cs3)cs2)CC1
1170 s | Cc1cccc(-c2noc(CSc3nc4cc5c(cc4c(=O)n3CC3CCCO3)OCO5)n2)c1 (centres undefined)
1040 s | Cc1cccc(NC(=O)Nc2nccn(-c3cccc(Cl)c3)c2=O)c1
680 s | O=C(NCCn1nc(-c2ccco2)ccc1=O)C1CN(c2nc3c(F)cccc3s2)C1
956 s | CCCS(=O)(=O)N1CC(=O)N(c2cccc(F)c2)C(C)(C(=O)NC2CCCCCC2)C1 (centres undefined)
721 s | COc1ccc(CN(Cc2ccccc2)Cc2cc(=O)n3cc(Cl)ccc3n2)cc1
